Results on 8 molecules are retold here after US10086054B2, “RM2 antigens and use thereof” (ACADEMIA SINICA, priority 2013, dated 2018).

Test [1] relates to RM2 (a mouse IgM anti-RM2 monoclonal antibody). Kind of test: Glycan array binding specificity of monoclonal antibody RM2. To be noted: glycans printed at 100 μM; FIG. 11. On the procedure:
An expanded glycan array containing the synthesized hexasaccharide 1 and its analogs along with the other ninety glycans are incorporated to a glycan array for testing (Figure S4). All glycans were directly immobilized onto NHS-coated glass slides by taking an aliquot from a stock solution of sugar at a fixed concentration (100 μM). The assay involved an initial treatment with RM2 (a mouse IgM anti-RM2 monoclonal antibody, a kind gift from Prof. Saito), followed by incubation with a fluorescein-tagged anti mouse IgM secondary antibody against its primary antibody. After one hour incubation, the slides were washed with ddH2O twice and scanned to show the binding specificity of the antibody to printed oligosaccharides. […] To determine the dissociation the dissociation constants of RM2 and truncated analogs on the surface interacting with the antibody in a multivalent manner, the direct measurement method was experimented (Liang, P. H.; Wang, S. K.; Wong, C. H. J. Am. Chem. Soc. 2007, 129, 11177), using different concentrations of antibodies and printed sugars. […] Using the same method, the KD,surf values were determined for the truncated RM2 analog 29 interacting with the antibody (FIG. 21 and Table S2). […]

The subject of test [2] is induced IgG antibodies by DT-RM4.7/C34 vaccine. Kind of test: Specificity analysis of antibodies induced by DT-RM4.7/C34 vaccine on glycan microarray. The class given is binding, mouse. To be noted: sera of DT-RM4.7/C34-immunized mice; for binding of induced IgG antibodies to glycan: FIG. 14; for binding of induced antibodies to glycan, microarray of STn, DSGG, RM2 antigen, analogs and fragments: FIG. 15. On the procedure:
It was observed that these oligosaccharides all contain the same epitope trisaccharide 27 (NeuAcα2→6GlcNAcβ1→3Galβ1→R). To further evaluate the vaccine specificity, a glycan microarray created by STn, DSGG, RM2 antigen, RM2 antigen analogs, and RM2 antigen fragments was constructed (FIG. 15).
Microarrays were printed (BioDot; CartesianTechnologies) by robotic pin (SMP3; TeleChem In-ternational Inc.) deposition of 0.7 nL 100 μM amine-containing glycans in printing buffer (300 mM phosphate buffer, pH 8.5, containing 0.01% TritonX-100) from a […] microtiter plate onto N-Hydroxysuccinimide (NHS)-coated glass slides. Subsequently, a 96-glycan microarray (Fig. S2) was used to determine the polyclonal Ab spectrum of DT-RM series-induced antiserum. Printed slides were allowed to react in an atmosphere of 80% humidity for 1 h followed by desiccation overnight. These slides were stored at room temperature in a desiccator prior to use.
Mouse sera were diluted with 1% BSA/PBST buffer (PBST buffer: PBS and 0.05% Tween-20, pH 7.4). The glycan microarray was blocked with 50 mM ethanolamine for 1 h at 0° C. and washed three times with PBST buffer before use. The serum dilutions were then introduced to the glycan microarray and incubated at 0° C. for 1 h. Next, Cy3-conjugated goat anti-mouse IgG (H+L), IgG1, IgG2a, IgG2b, IgG2c, IgG3, or anti-mouse IgM was added to the microarray slide and then sealed for 1 h incubation at 0° C. in the dark. Finally, the slides were washed three times with PBST, PBST washing buffer, and ddH2O in sequence. The slides were spin-dried for 5 minutes before scanned at 635 nm with a microarray fluorescence chip reader (GenePix 4300A; Molecular Devices Corporation). Scanned images were analyzed with GenePix Pro-6.0 analysis software (Axon Instruments, Union City, Calif., USA).

Test [3] relates to monoclonal RM2 antibody. Description: Determination of surface dissociation constant (KD,surf) on glycan microarray. The class given is binding, mouse. As for the experimental part:
An expanded glycan array containing the synthesized hexasaccharide 1 and its analogs along with the other ninety glycans are incorporated to a glycan array for testing (Figure S4). All glycans were directly immobilized onto NHS-coated glass slides by taking an aliquot from a stock solution of sugar at a fixed concentration (100 μM). The assay involved an initial treatment with RM2 (a mouse IgM anti-RM2 monoclonal antibody, a kind gift from Prof. Saito), followed by incubation with a fluorescein-tagged anti mouse IgM secondary antibody against its primary antibody. After one hour incubation, the slides were washed with ddH2O twice and scanned to show the binding specificity of the antibody to printed oligosaccharides. […] To determine the dissociation the dissociation constants of RM2 and truncated analogs on the surface interacting with the antibody in a multivalent manner, the direct measurement method was experimented (Liang, P. H.; Wang, S. K.; Wong, C. H. J. Am. Chem. Soc. 2007, 129, 11177), using different concentrations of antibodies and printed sugars. […] At the printing concentrations from 100 μM to 6.25 μM, however, it was observed that the KD,surf values measured were narrowly distributed from the individual curves (FIG. 20 and Table 1). Using the same method, the KD,surf values were determined for the truncated RM2 analog 29 interacting with the antibody (FIG. 21 and Table S2).
The slides were spotted with solution of RM2 1 and 29 with concentrations 100, 50, 25, 12.5, and 6.25 μM 2 rows from top to bottom with 5 replicates horizontally placed in each grids. The glycan microarray was blocked with 50 mM ethanolamine for 1 h at 0° C. and washed three times with PBST buffer before use. The monoclonal RM2 antibody was diluted with 3% BSA/PBST buffer (PBST buffer: PBS and 0.05% Tween-20, pH 7.4). Next, Cy3-conjugated goat anti-mouse IgM antibody was added into the diluted solution to precomplex with primary antibody. The precomplexed solution was applied to each well and incubated at 0° C. for 1 h in the dark. Finally, the slides were washed by PBST washing buffer and ddH2O in sequence. The slides were spin-dried for 5 minutes before scanned at 635 nm with a microarray fluorescence chip reader (GenePix 4300A; Molecular Devices Corporation). Scanned images were analyzed with GenePix Pro-6.0 analysis software (Axon Instruments, Union City, Calif., USA).

The mark [4] stands for this setting: antibody RM2, glycan printed on microarray, read-out: KD, surf (nM) ± SD.

Where two headings read alike, the source gives them in different places.

With `CC(=O)N[C@@H]1[C@@H]([C@H](O)[C@H](O)CO)O[C@](O[C@@H]2[C@@H](O)[C@H](O[C@H]3[C@H](O)[C@@H](CO[C@]4(C(=O)O)C[C@H](O)[C@@H](NC(C)=O)[C@H]([C@H](O)[C@H](O)CO)O4)O[C@@H](O[C@H]4[C@@H](O)[C@@H](CO)O[C@@H](OCCCCCN)[C@@H]4O)[C@@H]3NC(C)=O)O[C@H](CO)[C@@H]2O[C@@H]2O[C@H](CO)[C@H](O)[C@H](O)[C@H]2NC(C)=O)(C(=O)O)C[C@H]1O` [Compound 1], the “binding specificity of the antibody to printed oligosaccharides” value in test [1] is on record as “recognize hexasaccharide 1 specifically”. The “binding of induced IgG antibodies to glycan” value in test [2] is recorded as “strong binding”. In addition, in test [2], the “binding of induced antibodies to glycan, microarray of STn, DSGG, RM2 antigen, analogs and fragments” value (“binding … analogs and fragments” for short) is reported as “mainly bound”. Moreover, the Fmax is given as 45,483 in test [3] (RM2 printing concentration 6.25 μM); 45,028 in test [3] (RM2 printing concentration 12.5 μM); 47,714 in test [3] (RM2 printing concentration 25 μM); 53,982 in test [3] (RM2 printing concentration 50 μM); 55,756 in test [3] (RM2 printing concentration 100 μM). The dissociation constant Kd amounted to 4.72 nM in test [3] (RM2 printing concentration 6.25 μM, read-out: KD, surf); 3.14 nM in test [3] (RM2 printing concentration 12.5 μM, read-out: KD, surf); 4.28 nM in test [3] (RM2 printing concentration 25 μM, read-out: KD, surf); 5.48 nM in test [3] (RM2 printing concentration 50 μM, read-out: KD, surf); 5.1 nM in test [3] (RM2 printing concentration 100 μM, read-out: KD, surf); 4.54 ± 0.903 nM in test [3] (setting [4]). The “relative binding specificity of RM2 for the epitopes” value in test [3] (antibody RM2) is listed as “RM2>pentasaccharide 29”.

Regarding `CC(=O)N[C@H]1[C@H](O[C@H]2[C@@H](O)[C@@H](CO)O[C@@H](OCCCCCN)[C@@H]2O)O[C@H](CO[C@]2(C(=O)O)C[C@H](O)[C@@H](NC(C)=O)[C@H]([C@H](O)[C@H](O)CO)O2)[C@@H](O)[C@@H]1O` [Compound 27, (2R,4S,5R,6R)-5-acetamido-2-(((2R,3S,4R,5R,6S)-5-acetamido-6-((2R,3R,4S,5S,6R)-2-(5-aminopentyloxy)-3,5-dihydroxy-6-(hydroxymethyl)tetrahydro-2H-pyran-4-yloxy)-3,4-dihydroxytetrahydro-2H-pyran-2-yl)methoxy)-4-hydroxy-6-((1R,2R)-1,2,3-trihydroxypropyl)tetrahydro-2H-pyran-2-carboxylic acid], in test [2], the “binding of induced IgG antibodies to glycan” value was “weaker binding”; the “binding … analogs and fragments” value is on record as “mainly bound”.

`CC(=O)N[C@H]1[C@H](O[C@H]2[C@@H](O)[C@@H](CO)O[C@@H](OCCCCCN)[C@@H]2O)O[C@H](CO[C@]2(C(=O)O)C[C@H](O)[C@@H](NC(C)=O)[C@H]([C@H](O)[C@H](O)CO)O2)[C@@H](O)[C@@H]1O[C@@H]1O[C@H](CO)[C@H](O)[C@H](O)[C@H]1O` [Compound 28, (2R,4S,5R,6R)-5-acetamido-2-(((2R,3S,4R,5R,6S)-5-acetamido-6-((2R,3R,4S,5S,6R)-2-(5-aminopentyloxy)-3,5-dihydroxy-6-(hydroxymethyl)tetrahydro-2H-pyran-4-yloxy)-3-hydroxy-4-((2R,3R,4S,5R,6R)-3,4,5-trihydroxy-6-(hydroxymethyl)tetrahydro-2H-pyran-2-yloxy)tetrahydro-2H-pyran-2-yl)methoxy)-4-hydroxy-6-((1R,2R)-1,2,3-trihydroxypropyl)tetrahydro-2H-pyran-2-carboxylic acid]: in test [2], the “binding of induced IgG antibodies to glycan” value is on record as “weaker binding”.

For the molecule `CC(=O)NC1[C@H](O[C@@H]2[C@H](O)[C@@H](O)[C@H](O[C@H]3[C@H](O)[C@@H](CO[C@]4(C(=O)O)C[C@H](O)[C@@H](NC(C)=O)[C@H]([C@H](O)[C@H](O)CO)O4)O[C@@H](O[C@H]4[C@@H](O)[C@@H](CO)O[C@@H](OCCCCCN)[C@@H]4O)[C@@H]3NC(C)=O)O[C@@H]2CO)O[C@H](CO)[C@H](O)[C@@H]1O` (stereo partly shown) [Compound 29], the “binding of induced IgG antibodies to glycan” value in test [2] was “weaker binding”. For the same molecule, the Fmax in test [3] (29 on microarray, printing concentration 6.25 μM) is listed as 51,597; in test [3] (29 on microarray, printing concentration 12.5 μM), 50,900; in test [3] (29 on microarray, printing concentration 25 μM), 50,970; in test [3] (29 on microarray, printing concentration 50 μM), 59,045; in test [3] (29 on microarray, printing concentration 100 μM), 62,859. Moreover, the Kd stood at 5.13 nM in test [3] (29 on microarray, printing concentration 6.25 μM, read-out: KD, surf); 4.05 nM in test [3] (29 on microarray, printing concentration 12.5 μM, read-out: KD, surf); 4.5 nM in test [3] (29 on microarray, printing concentration 25 μM, read-out: KD, surf); 6.44 nM in test [3] (29 on microarray, printing concentration 50 μM, read-out: KD, surf); 6.96 nM in test [3] (29 on microarray, printing concentration 100 μM, read-out: KD, surf); 5.76 ± 1.14 nM in test [3] (setting [4]).

For the molecule `CC(=O)NC1C(O[C@@H]2OC(CO)[C@H](O)C(O[C@@]3(C(=O)O)CC(O)[C@H](NC(C)=O)C([C@H](O)[C@H](O)CO)O3)C2O)[C@H](O)C(CO[C@]2(C(=O)O)CC(O)[C@@H](NC(C)=O)C([C@H](O)[C@H](O)CO)O2)O[C@H]1OC1C(O)[C@H](OCCCCCN)OC(CO)[C@@H]1O` (stereo partly shown) [Compound 30], the “binding of induced IgG antibodies to glycan” value in test [2] is “weaker binding”.

In the case of `CC(=O)N[C@H]1[C@H](OCCCCCN)O[C@H](CO[C@]2(C(=O)O)C[C@H](O)[C@@H](NC(C)=O)[C@H]([C@H](O)[C@H](O)CO)O2)[C@@H](O)[C@@H]1O` [Compound 33, (2R,4S,5R,6R)-5-acetamido-2-(((2R,3S,4R,5R,6R)-5-acetamido-6-(5-aminopentyloxy)-3,4-dihydroxytetrahydro-2H-pyran-2-yl)methoxy)-4-hydroxy-6-((1R,2R)-1,2,3-trihydroxypropyl)tetrahydro-2H-pyran-2-carboxylic acid], the “binding … analogs and fragments” value in test [2] is reported as “a lesser extent”.

For the molecule `CC(=O)NC1C(OC2C(O)C(OCCCCCN)OC(CO)[C@H]2O)OC(CO[C@]2(C(=O)O)CC(O)[C@@H](NC(C)=O)C([C@H](O)[C@H](O)CO)O2)[C@@H](O)C1O` (stereo partly shown) [Compound 34], the “binding … analogs and fragments” value in test [2] is listed as “a lesser extent”.

As to `CC(=O)N[C@H]1[C@H]([C@H](O)[C@H](O)CO)O[C@@](OC[C@H]2OC(O)[C@H](O)[C@@H](O)[C@H]2O)(C(=O)O)C[C@@H]1O` (stereo partly shown) [NeuAcα2→6Gal, reference compound], the “binding … analogs and fragments” value in test [2] was “no detectable signal of binding”.

As usually defined, the Kd is the constant that tells how readily two partners part at equilibrium.
